According to patent publication US6670350B1, “Method of administering dienogest in high dosages to reduce the body of the breast and pharmaceutical composition for same” (JenaPharm GmbH & Co. KG, priority 1999, dated 2003):

How the values were obtained:
body of the breast = test: clinical study, sonographic examination of the breast; format: in vivo, patients (women)
Protocol: In a clinical study, the reduction of the body of the breast was detected sonographically in 21 patients ranging in age from 18 to 52 years. In each case, 10 mg of dienogest were administered orally as a tablet over a period of 24 weeks at intervals of 12 hours. The daily dose therefore amounted to 20 mg of dienogest. The breast was examined sonographically before the treatment as well as after 12 and 24 weeks of continuous therapy.

[1] = blood fat values on administration of high dosages of dienogest; format: in vivo

Compound: C[C@]12CCC3=C4CCC(=O)C=C4CC[C@H]3[C@@H]1CC[C@@]2(O)CC#N [dienogest, 17-hydroxy-3-oxo-19-nor-17α-pregna-4,9-diene-21-nitrile]
- body of the breast (detected sonographically) (body of the breast; 21 patients aged 18 to 52 years, 10 mg orally as tablet every 12 hours (20 mg daily) over 24 weeks, on the average, in all women): decreased significantly
- symptoms of mastopathic changes, such as duct ectasia (body of the breast; 21 patients, 10 mg orally every 12 hours (20 mg daily) over 24 weeks): receded completely
- HDL cholesterol level [1]: increased
